The test system of data set [1] is muscle cells derived from the C2C12 murine line. Conditions: literature, Kazi et al., 2010; cited from earlier work.
The test system of data set [2] is phosphorylations that activate proteins such as Akt or S6 kinase. Conditions: could reach; literature, Kazi et al., 2010; cited from earlier work.
The subject of data set [3] is myostatin transcript. The data set is described as follows: Mice subjected to a high-fat diet: myostatin transcript of the Soleus muscle. The format is in vivo, C57BL/6J mice. Conditions: 5 mg/kg orally; high-fat diet for 6 weeks; FIG. 4. On the procedure:
(§1) The 20E as comparative compound and the compounds according to the invention (Nos. 51 and 93) were administered orally, at a dose of 5 mg/kg of body weight, to 12-week-old C57BL/6J mice subjected to a high-fat diet for 6 weeks. The effect of the compounds on the weight and the amount of proteins of the Soleus muscle and also the transcripts of genes involved in myogenesis were evaluated.
In order to carry out the gene expression analysis, the muscle tissues were homogenized in a Trizol solution (500 μl), and the RNAs were extracted and purified using the phenol/chloroform method. An amount of […] of RNA was used as template for the synthesis of the first cDNA strand using oligo (dT)s as primers and the AMV reverse transcriptase enzyme as described by the supplier (Applied Biosystems 4368814). The q-PCRs were then carried out using a 7900HT machine equipped with a rapid system for real-time detection by PCR (Applied Biosystems) and the standard qPCR program (1 cycle of 95° C. for 15 min, 40 cycles of 95° C. for 15 s and 60° C. for 1 min, a 60-95° C. melt curve for the Sybergreen probes). The experiments are carried out in a Sybergreen SYBR master mix (Applied Biosystems) containing the 100 ng cDNA samples and a set of primers which bind to the two different exons and at a final concentration of 200 nM.
(§2) The relative differences in gene expression between treatments are expressed as increase or decrease in the number of cycle times [Ct] compared with the control group, the [Ct] value of each gene having been standardized with the beta-actin gene.
(§3) The in vivo study is carried out by evaluating the effect of 20E as comparative compound and of the molecules according to the invention (Nos. 51 and 93) administered orally, at a dose of 5 mg/kg of body weight, to C57BL/6 mice subjected to a high-fat diet for 6 weeks. The effect of the molecules on the weight and the amount of proteins of the Soleus muscle and also the transcripts of genes involved in myogenesis were evaluated.

In data set [4] the test system is myogenin transcripts. The data set is described as follows: Mice subjected to a high-fat diet: myogenin transcripts of the Soleus muscle. It is filed as in vivo, C57BL/6J mice. The note with it: 5 mg/kg orally; high-fat diet for 6 weeks; FIG. 5B. On the procedure:
as §1
(§4) Myogenesis, which is the process for forming muscle tissues, is controlled by several myogenic transcription factors which act as end effectors of the signaling cascade and produce transcripts involved in the various stages of development. The roles of the transcription factors have been described in various journals (Sabourin and Rudnicki 2000 and Le Grand and Rudnicki 2007). The Pax7 protein (Paired-box protein 7) maintains a population of satellite cells in quiescence and, with Myf5 (Myogenic factor 5), plays a role in the expansion of activated myoblasts. The MyoD protein (Myoblast Determination protein) appears to determine the differentiation potential of activated myoblasts, and cooperates with myogenin and the MEF2 (Myocyte Enhancer Factor 2) protein to control and bring about differentiation. Finally, MRF4 (Muscle-specific Regulatory Factor 4) is required for hypertrophy, even though it probably plays other roles. […]
as §2, §3

For data set [5], the system named is Myf5 gene transcripts. As to the kind of experiment: Mice subjected to a high-fat diet: Myf5 transcripts. The format is in vivo, C57BL/6J mice. Conditions: 5 mg/kg orally; high-fat diet for 6 weeks. On the procedure: as §1, §4, §2, §3
The conditions of data set [6]: rat, in vivo, po.
Procedure: The pharmacokinetics of the compounds were evaluated orally using male Wistar rats (Charles River). […] The novel compounds according to the invention were administered at a dose of 10 mg/kg of body weight in the form of a mixture of 4 to 6 products. After administration, the blood was sampled from the tail at t=0.25 h, 0.5 h, 1 h, 3 h, 6 h and 8 h. The blood samples were centrifuged and the plasmas removed.
For data set [7], the system named is Soleus muscle of C57BL/6 mice subjected to a high-fat diet. As to the kind of experiment: Mice subjected to a high-fat diet: weight and amount of proteins of the Soleus muscle. The format is in vivo, C57BL/6J mice. Conditions: 5 mg/kg orally, high-fat diet for 6 weeks, compared with the control group. On the procedure:
as §1
The amount of proteins is determined by first lysing the muscles sampled in a 0.1N NaOH solution with the FastPrep technique. The proteins are quantified by means of a colorimetric assay derived from the Lowry method.
as §3

In data set [8] the test system is S6 kinase (S6K1) phosphorylation in C2C12 cells. As to the kind of experiment: Phosphorylation of the S6 kinase in C2C12 cells (ELISA pS6K T389), protein synthesis. The format is cell-based, mouse. Conditions: test compounds and 20E reference (10 μM); C2C12, 2 h. (In general: An ELISA detects its analyte on a solid surface through an enzyme-linked reagent.)
Data set [9] relates to MyoD transcripts. As to the kind of experiment: Mice subjected to a high-fat diet: MyoD transcripts of the Soleus muscle. The format is in vivo, C57BL/6J mice. Conditions: 5 mg/kg orally; high-fat diet for 6 weeks; FIG. 5A. On the procedure:
as §1, §4, §2, §3

The text below walks through data of patent US10316056B2, “Chemical compounds and use thereof for improving muscular quality” (BIOPHYTIS, priority 2014, dated 2019).

Consider “IGF-1: reference product (100 ng/ml) that stimulates protein synthesis”, for which the “increase in protein synthesis” value in [1] is 20%. For the same compound, the “stimulation of targets of the signaling pathway” value in [2] was “about 200%”.
As usually defined, the AUC is the area under the concentration-time curve, a measure of exposure. Low values mean low exposure, high ones high exposure. Broadly, the Cmax is the maximum level reached in the sampled fluid or tissue. The term Tmax denotes the time from dosing to the highest level. As to `CC(C)(O)CC[C@@H](O)[C@](C)(O)[C@H]1CC[C@@]2(O)C3=CC(=O)[C@@H]4C[C@@H](O)[C@@H](O)C[C@]4(C)[C@H]3CC[C@]12C` [Compound 20E, 20-hydroxyecdysone, reference compound], in data set [3], the “myostatin expression in the Soleus muscle” value is on record as “comparably inhibit”. The “transcript of the myogenin gene” value in [4] was “increase”. Also, the “transcripts of the Myf5 gene” value in [5] is “increase”. Also, the “Cexp (coefficient of exposure)” value in [6] is 1.0. In addition, in data set [6] (50 mg/kg), the AUC came to 382 ng·h/mL, the Cmax turned out to be 68 ng/mL and the Tmax worked out at 30 min. In addition, in data set [7] (FIG. 3A), the “weight of the Soleus muscle” value is on record as “increases”. The “amount of proteins of the Soleus muscle” value in [7] (FIG. 3B) is given as “increases”. The compound further gave an S6K1 phosphorylation level in data set [8] of 120%. The “transcripts of the MyoD gene” value in data set [9] is given as “increase”.
